Data from PubChem BioAssay AID1918991 (Molecular Pharmacology Branch, DTP, NCI, 2023).

Test system: 186277-243-T-J2-PDC complex spheroid growth
Assay: Anticancer human tumor 186277-243-T-J2-PDC patient-derived colon adenocarcinoma cell line growth inhibition [AhR]
Conditions: for IC50: curve of first compound; for viability, T/C: stronger effect = lower value
In short: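 Spheroids combined tumor cells with HUVEC endothelial cells and human MSCs as stroma. AhR antagonists were paired with standard or investigational drugs, each dosed in half-log steps down from near clinical Cmax, or from 10 microM where Cmax was unknown.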

[1] = second compound 0.1 µM, first compound 0.000949 µM
[2] = second compound 0.1 µM, first compound 0.003 µM
[3] = second compound 0.1 µM, first compound 0.00949 µM
[4] = second compound 0.1 µM, first compound 0.03 µM
[5] = second compound 0.1 µM, first compound 0.0949 µM
[6] = second compound 0.1 µM, first compound 0.3 µM
[7] = second compound 0.316 µM, first compound 0.000949 µM
[8] = second compound 0.316 µM, first compound 0.003 µM
[9] = second compound 0.316 µM, first compound 0.00949 µM
[10] = second compound 0.316 µM, first compound 0.03 µM
[11] = second compound 0.316 µM, first compound 0.0949 µM
[12] = second compound 0.316 µM, first compound 0.3 µM
[13] = second compound 1 µM, first compound 0.000949 µM
[14] = second compound 1 µM, first compound 0.003 µM
[15] = second compound 1 µM, first compound 0.00949 µM
[16] = second compound 1 µM, first compound 0.03 µM
[17] = second compound 1 µM, first compound 0.0949 µM
[18] = second compound 1 µM, first compound 0.3 µM
[19] = second compound 3.16 µM, first compound 0.000949 µM
[20] = second compound 3.16 µM, first compound 0.003 µM
[21] = second compound 3.16 µM, first compound 0.00949 µM
[22] = second compound 3.16 µM, first compound 0.03 µM
[23] = second compound 3.16 µM, first compound 0.0949 µM
[24] = second compound 3.16 µM, first compound 0.3 µM
[25] = second compound 10 µM, first compound 0.000949 µM
[26] = second compound 10 µM, first compound 0.003 µM
[27] = second compound 10 µM, first compound 0.00949 µM
[28] = second compound 10 µM, first compound 0.03 µM
[29] = second compound 10 µM, first compound 0.0949 µM
[30] = second compound 10 µM, first compound 0.3 µM
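Further: spheroids exposed to compounds for seven days before the viability read.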
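Wherever viability, T/C is given: luminescent signal used as a stand-in for viable cell amount; 100% = DMSO vehicle control wells.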

| SMILES | IC50 (second compound 0.1 µM) | IC50 (second compound 0.316 µM) | IC50 (second compound 1 µM) | IC50 (second compound 3.16 µM) | IC50 (second compound 10 µM) | viability, T/C [1] | viability, T/C [2] | viability, T/C [3] | viability, T/C [4] | viability, T/C [5] | viability, T/C [6] | viability, T/C [7] | viability, T/C [8] | viability, T/C [9] | viability, T/C [10] | viability, T/C [11] | viability, T/C [12] | viability, T/C [13] | viability, T/C [14] | viability, T/C [15] | also measured |
| --- | --- | --- | --- | --- | --- | --- | --- | --- | --- | --- | --- | --- | --- | --- | --- | --- | --- | --- | --- | --- | --- |
| CC(C)CC(NC(=O)C(Cc1ccccc1)NC(=O)c1cnccn1)B(O)O (stereo not given) + Cc1cncc(-c2nc(NCCc3c[nH]c4ccccc34)c3ncn(C(C)C)c3n2)c1 | 0.0158 µM | 0.0158 µM | 0.0164 µM | 0.0124 µM | < 0.000949 µM | 103% | 108% | 88.1% | 1.86% | 0.49% | 0.14% | 131% | 120% | 89.1% | 0.33% | 0.05% | 0.12% | 97.3% | 107% | 95.2% | viability, T/C [16]: 0.51%; viability, T/C [17]: 0.15%; viability, T/C [18]: 0.11%; viability, T/C [19]: 102%; viability, T/C [20]: 116%; viability, T/C [21]: 65.1%; viability, T/C [22]: 0.66%; viability, T/C [23]: 0.05%; viability, T/C [24]: 0.13%; viability, T/C [25]: 44.9%; viability, T/C [26]: 53.5%; viability, T/C [27]: 1.63%; viability, T/C [28]: 0.26%; viability, T/C [29]: 0.13%; viability, T/C [30]: 0.2% |
| CCc1c2c(nc3ccc(O)cc13)-c1cc3c(c(=O)n1C2)COC(=O)[C@]3(O)CC + Cc1cncc(-c2nc(NCCc3c[nH]c4ccccc34)c3ncn(C(C)C)c3n2)c1 | 0.0232 µM | 0.0204 µM | 0.0262 µM | 0.0178 µM | < 0.000949 µM | 112% | 96% | 66% | 46.1% | 25.2% | 11.7% | 126% | 83.1% | 70.9% | 44.2% | 21.7% | 11.7% | 123% | 83.7% | 73.5% | viability, T/C [16]: 48.5%; viability, T/C [17]: 20.2%; viability, T/C [18]: 11.8%; viability, T/C [19]: 108%; viability, T/C [20]: 75.2%; viability, T/C [21]: 66.8%; viability, T/C [22]: 43.7%; viability, T/C [23]: 17.3%; viability, T/C [24]: 9.67%; viability, T/C [25]: 24.6%; viability, T/C [26]: 28.9%; viability, T/C [27]: 32%; viability, T/C [28]: 17.6%; viability, T/C [29]: 6.54%; viability, T/C [30]: 3.87% |
